Experimental data as given in patent US7687546B2, “Quaternary ammonium compound, process for producing the same, therapeutic agent for cerebrovascular disorder, and therapeutic agent for heart disease” (Activus Pharma Co., Ltd., priority 2004, dated 2010).
Like-named read-outs stand apart in the source and are kept apart here.

Legend:
[1] = tested on: ouabain-induced arrhythmia model; test: Ouabain-induced arrhythmia model in guinea pigs; type: in vivo, guinea pigs (Hartley strain); details: dose 3 mg/kg i.v. immediately before ouabain infusion 3 μg/0.1 ml/min
Excerpt: After guinea pigs (Hartley strain, age 6 weeks) were anesthetized with urethane, induction electrodes were attached to the hind limbs and fore limbs, and standard 2-lead electrocardiograms were monitored with an animal electrocardiogram analysis system (ECG-01, Japan Energy). After confirming that the waveforms of the electrocardiogram and heart rate were within the normal range, an incision was made in the epidermis of the neck followed by inserting a breathing tube into the trachea and cannulating a polyethylene tube into the left external jugular vein and left common carotid artery.
Immediately after administering a compound of the present invention dissolved in a physiological saline solution into the right external jugular vein, ouabain was continuously infused at 3 μg/0.1 ml/min through the cannulated polyethylene tube into the left external jugular vein using a syringe pump (Atom Syringe Pump 1235 (trade name), Atom Medical Corporation).
In addition, the polyethylene tube cannulated in the left common carotid artery was connected to a pressure transducer (P23XL, Gould Electronics), and fed to a pressure processor signal conditioner (TA-11, Gould Electronics) to record blood pressure and heart rate on a thermal plate recorder.
The results were assessed by comparing the dose (μg/kg) of ouabain administered until the appearance of arrhythmia and occurrence of cardiac arrest (arrhythmia is not induced even if a large dose of ouabain is administered if antiarrhythmic effects are high). Furthermore, a solvent dose group (administered only physiological saline in an amount equal to that of the test drug groups), and a positive control group administered a typical antiarrhythmic disopyramide phosphate (physiological saline solution), were also provided.

[2] = tested on: model of myocardial ischemia reperfusion injury; test: Model of myocardial ischemia-reperfusion injury in dogs; type: in vivo; details: 3 mg/kg into the femoral vein 10 minutes before 20 minutes coronary occlusion, then reperfusion
Method: In order to confirm the efficacy of compounds of the present invention on myocardial infarction and arrhythmia caused by myocardial infarction, a pharmacological study was conducted using a model of myocardial ischemia reperfusion injury in dogs for the compounds used in Example 1.
Dogs having body weights of approximately 10 kg were anesthetized with pentobarbital (trade name) (30 mg/ml/kg) followed by shaving the surgical site after starting artificial respiration. The femoral vein and femoral artery were separated followed by cannulation. The femoral vein was used as the administration route for the test substances, while the femoral artery was used to measure blood pressure.
Next, after opening the left chest, making an incision in the pericardium and exposing the left ventricle, the left coronary artery was separated. A silk suture was passed through the coronary artery to occlude, followed by the attachment of an electromagnetic flow meter probe for measuring blood flow.
In addition, a pair of ultrasound crystal probes was fixed in position to measure changes in ventricular wall length as a indicator of myocardial contractile force, and indwelling needle was installed for measuring left intraventricular pressure. Compounds of the present invention were administered into the femoral vein at 3 mg/kg (15% physiological saline solution) followed 10 minutes later by occluding the coronary artery for 20 minutes, and subsequently reperfusing the coronary artery. Myocardial contraction following ischemia-reperfusion was compared for each group based on a value of 100 for myocardial contraction prior to ischemic reperfusion. In addition, comparisons were also made with a solvent control group administered only physiological saline.

guinea pigs [3] = test: Study of arrhythmia-inducing action in guinea pigs (without ouabain); details: no ouabain
[4] = tested on: middle cerebral artery occlusion and reperfusion model; test: Cerebral infarction model: middle cerebral artery occlusion and reperfusion (infarct area, neurological symptoms, motor function); type: in vivo, rats (Crj: Wistar strain); parameters: Improvement of neurological symptoms* (total score): scale not given here; details: rats, average of 10 animals; for Improvement of neurological symptoms* (total score) / Improvement of motor function (time stayed on rotor rod: seconds): single i.v. dose 3 mg/kg; for Improvement of neurological symptoms* (total score): 24 hours after occlusion, total score per Table 4, smaller = greater effect; for Improvement of motor function (time stayed on rotor rod: seconds): rotor rod 14 rotations per minute, maximum 1 minute; for Cerebral infarction reduction rate (%): single intravenous dose 3 mg/kg immediately before reperfusion, vs physiological saline group, bigger = greater effect
Method: In this example, a cerebral infarction model was prepared using rats in which reperfusion injury was induced by ischemia and then reperfusion of the middle cerebral artery using the obturator method. The efficacy of compounds of the present invention following single-dose intravenous administration at dose of 3 mg/kg was evaluated in terms of infarct area, neurological symptoms and motor function.
In addition, Edaravone (trade name, Mitsubishi Pharma Corporation) was used as a reference compound. The compounds of the present invention were stored in a refrigerator under protection from light, while Edaravone (trade name) was stored at room temperature under protection from light.
Compounds of present invention: 2 mL of physiological saline was added directly to tube containing 3 mg aliquots of a compound of the present invention to dissolve and prepare solutions having a concentration of 3 mg/2 mL. These samples were prepared at the time of use.
Edaravone: Since Edaravone is an injectable solution having a concentration of 30 mg/20 mL, the required amounts were divided up and used.
Rats: Crj: Wistar strain, males, age 7 weeks (Charles River Laboratories Japan, Inc.)
The test compounds were administered in a single dose into the tail vein using a 1 mL syringe and 27 G injection needle immediately before the reperfusion.
The rats were anesthetized by intraperitoneal administration of sodium pentobarbital at dose of 40 mg/kg (Nembutal (trade name), Dainippon Pharmaceutical Co., Ltd.), and a middle cerebral artery occlusion and reperfusion model was prepared in accordance with the method of Koizumi et al. (Non-Patent Document 2). Namely, the animals were warmed to 37° C. and held in the dorsal position while breathing spontaneously. A midline cervical incision was made, and then the right external carotid artery and right internal carotid artery were separated without damaging the vagus nerve. The right common carotid artery and right external carotid artery were ligated, and a suture was attached to the origin of the internal carotid artery in preparation for ligation and maintenance of occlusion following insertion of an obturator into the internal carotid artery. Moreover, a small incision was made in the right common carotid artery, an obturator provided with an approximately 17 mm silicon-coated suture was inserted into the internal carotid artery, and the internal carotid artery was ligated. Two hours after ligation, the obturator was removed under unanesthesia to reperfuse. Furthermore, flexion of the contralateral forelimb was confirmed 30 minutes after occlusion of the middle cerebral artery.
The following neurological symptoms were evaluated 24 hours after occlusion of the middle cerebral artery according to the evaluation method of Petullo et al. (Non-Patent Document 3). Neurological symptoms consisted of flexion of the forelimbs, torso twisting, resistance when pushing on the back of the right or left shoulder (Lateral push), circling, return of the hindlimb to the floor when lifted from the floor (Hindlimb placement), behavior when the head is faced downward on an angle (Inverted angle board) and a locomotor activity test.
Flexion of the forelimbs: flexion of the forelimbs was observed when the animals were lifted up by the tail.
Torso twisting: Torso twisting was observed when the animals were lifted up by the tail.
Lateral push: Resistance was observed when pushing on the back of the right or left shoulder.
Hindlimb placement: The animals were observed as to whether or not the hindlimb immediately returns to the floor after being lifted from the floor when placed on a horizontal floor.
locomotor activity: locomotor activity was observed when the animals were placed in a polycarbonate cage.
The aforementioned tests were scored based on the criteria described in the following documents, followed by calculation of total scores (see Table 4 “Neurological Symptom Evaluation Criteria and Scores”). […]

[5] = tested on: model of myocardial ischemia-reperfusion injury; test: Model of myocardial ischemia-reperfusion injury in rats; type: in vivo; details: 3 mg/kg i.v. 5 minutes before 5 minutes coronary ligation, 8 rats per group; for Incidence of Ventricular Fibrillation (%) / Incidence of Ventricular Tachycardia (%): monitored 5 minutes after reperfusion; for Mortality Rate (%): then reperfusion
guinea pigs [6] = details: guinea pig, in vivo
[7] = dose 3 mg/kg, up to 1 hour after administration
[8] = dose 10 mg/kg, up to 1 hour after administration
[9] = dose 3.9 mg/kg, up to 1 hour after administration

SMILES | Ouabain (μg/kg) administered until Cardiac arrest [1] [µg/kg] | Ouabain (μg/kg) administered until appearance of Arrhythmia [1] [µg/kg] | Myocardial Contraction (%) (Based on a value of 100% for prior to ischemia-reperfusion) [2] | Improvement of neurological symptoms* (total score) [4] | Improvement of motor function (time stayed on rotor rod: seconds) [4] [s] | Cerebral infarction reduction rate (%) [4] [%] | Incidence of Ventricular Fibrillation (%) [5] [%] | Incidence of Ventricular Tachycardia (%) [5] [%] | Mortality Rate (%) [5] [%] | Occurrence of Arrhythmia (guinea pigs [6]; 3 mg/kg) | Occurrence of cardiac arrest (guinea pigs [6]; 3 mg/kg) | Occurrence of Arrhythmia (guinea pigs [6]; 10 mg/kg) | Occurrence of cardiac arrest (guinea pigs [6]; 10 mg/kg) | also measured
C[N+](C)(C)CCOc1ccc(C(=O)[O-])cc1 [Compound 3, 4-(2-trimethylammonio-ethoxy)-benzoate] | 235 | 169 | 81 | 6.20 | 50.1 | 48.7 | 12.5 | 62.5 | 0 |  |  |  |  | Occurrence of Arrhythmia (guinea pigs [3]; [7]): No; Occurrence of cardiac arrest (guinea pigs [3]; [7]): No; Occurrence of Arrhythmia (guinea pigs [3]; [8]): No; Occurrence of cardiac arrest (guinea pigs [3]; [8]): No
C[N+](C)(C)CC(O)Oc1ccc(O)c(C(=O)[O-])c1 (stereo not drawn) [Compound 56] | 244 | 172 | 71 | 6.55 | 45.4 | 40.7 | 12.5 | 62.5 | 25.0 | No | No | No | No | 
C[N+](C)(C)CCOc1ccc(S(=O)(=O)[O-])cc1 [Compound 60] | 243 | 170 | 88 | 6.65 | 44.2 | 39.0 | 25.0 | 62.5 | 0 | No | No | No | No | 
C[N+](C)(C)CCOc1ccc(O)c(S(=O)(=O)[O-])c1 [Compound 66] | 237 | 168 | 80 | 6.35 | 49.6 | 47.9 | 12.5 | 62.5 | 12.5 | No | No | No | No | 
CC[N+](CC)(CC)CCOc1ccc(S(=O)(=O)[O-])c(O)c1 [Compound 71] | 239 | 171 | 72 | 6.30 | 48.8 | 46.3 | 12.5 | 62.5 | 0 | No | No | No | No | 
C[N+](C)(C)CCCOc1cc(S(=O)(=O)[O-])ccc1O [Compound 77] | 227 | 167 | 75 | 6.40 | 49.3 | 47.3 | 12.5 | 75.0 | 12.5 | No | No | No | No | 
CC(C)N(CCC(C(N)=O)(c1ccccc1)c1ccccn1)C(C)C (stereo not drawn) [Disopyramide phosphate, disopyramide phosphate, reference compound] | 247 | 175 |  |  |  |  |  |  |  |  |  |  |  | Occurrence of Arrhythmia (guinea pigs [3]; [9]): No; Occurrence of cardiac arrest (guinea pigs [3]; [9]): No; Occurrence of cardiac arrest (guinea pigs [3]; dose 12.9 mg/kg (10 mg/kg as disopyramide)): Yes; Occurrence of cardiac arrest (guinea pigs [3]; dose 12.9 mg/kg (10 mg/kg as disopyramide), listed as disopyramide phosphate): cardiac arrest occurred immediately after administration
